Values joined by “and” are separate entries in the source; they are usually repeats but may differ in a detail not shown here. Equal values may be shown once. Read-outs that look alike come from different tables or passages of the source.
Tests used:
[1] = type: physicochemical, dog; details: for Bench top stability, Mean concentration / Bench top stability, RE % (mean vs nominal): dog, 17 h
Method: (§1) For the remaining validation tests, a calibration curve and triplicates QCs at the low, mid and high levels were analyzed with each sample set. The following samples were also analyzed either in conjunction with one of the precision and accuracy runs or in one of the additional validation runs: Samples from six lots of control dog plasma for specificity. Two concentration levels of unextracted QC-samples in triplicate (solvent standards) were analyzed for the evaluation of the recovery of sodium 2,2-dimethylbutyrate and DMV in dog plasma. Two levels of QC samples (Low QC and High QC in triplicate) were subjected to three freeze/thaw cycles at approximately −70° C. prior to extraction to evaluate freeze/thaw stability. Two levels of QC samples (Low QC and High QC in triplicate) were placed on the bench top for approximately 17 hours prior to extraction for the evaluation of the bench top stability. Triplicate low QC samples and triplicate high QC samples were stored for one month and three months in a freezer at approximately −70° C., and then extracted and analyzed to evaluate long term stability in dog plasma. Three aliquots of a dilution QC sample diluted 10-fold.
(§2) Bench top stability was evaluated at room temperature for approximately 17 hours. Triplicate QC-Low and QC-High samples were extracted and analyzed after these storage conditions. The CV % values for the QC-Low and QC-High stability samples are 3.2% and 3.4%, respectively. To calculate the RE %, the measured mean concentration was compared to the nominal concentration. The RE % values for the QC-Low and QC-High stability samples are 2.1% and −10.7%, respectively.

[2] = type: physicochemical, human; details: for Extract freezer stability, Mean concentration / Extract freezer stability, RE % (mean vs nominal): human, 8 h
Method: The following samples were also analyzed either in conjunction with one of the precision and accuracy runs or in one of the additional validation runs. Samples from six lots of control human plasma for specificity. Samples from six lots of control human plasma fortified with internal standard for specificity. Two concentration levels of unextracted QC-samples in triplicate (solvent standards) were analyzed for the evaluation of the recovery of sodium 2,2-dimethylbutyrate and DMV in human plasma. Two levels of QC samples (Low QC and High QC in triplicate) were subjected to three freeze/thaw cycles at approximately −70° C. prior to extraction to evaluate freeze/thaw stability. Two levels of QC samples (Low QC and High QC in triplicate) were placed on the bench top for approximately 17 hours prior to extraction for the evaluation of the bench top stability. Triplicate low QC samples and triplicate high QC samples were stored for one month and three months in a freezer at approximately −70° C., and then extracted and analyzed to evaluate long term stability in human plasma. Two levels of extracted QC samples (Low QC and High QC) were re-analyzed after approximately 71 hours in the autosampler at room temperature to evaluate the extract autosampler stability. Two levels of extracted QC samples (Low QC and High QC) were re-analyzed after approximately 8 hours in the freezer at approximately −20° C. to evaluate the extract freeze stability. Three aliquots of a dilution QC sample diluted 10-fold. Triplicate dilutions of the old stock solution (stored at approximately 4° C.) and new stock solutions prepared at intervals of two weeks and one month. Statistical calculations in the report tables were calculated from unrounded concentration values taken directly from the raw data. The concentration values were rounded for display purposes.
QC-Low and QC-High extract samples in triplicate were analyzed and then stored in a −20° C. freezer for approximately 8 hours. These QC samples were then re-analyzed to evaluate the extract freezer stability. The CV % values for the QC-Low and QC-High stability samples are 8.6% and 1.2%, respectively. To calculate the RE %, the measured mean concentration was compared to the nominal concentration. The RE % values for the QC-Low and QC-High stability samples are −6.3% and −13.0%, respectively.

[3] = Bench top stability in rat plasma; type: physicochemical; details: for Bench top stability, RE % (mean vs nominal): room temperature approximately 12.5 hours
Method: as §1, with “rat” for “dog”, “specificity; Samples from six lots of control rat plasma fortified with internal standard for specificity;” for “specificity.”, “rat plasma;” for “dog plasma.”, “stability;” for “stability.”
as §2, with “12.5” for “17”, “6.3%” for “3.2%”, “11.7%,” for “3.4%,”, “7.6%” for “2.1%”, “9.1%,” for “−10.7%,”

[4] = Storage stability of quality control sample in human urine at −20° C.; type: physicochemical; details: storage temperature of −20° C.
Method: In method I, the mobile phase of liquid chromatography was run on 0.1% formic acid in acetonitrile, and the elution volume was 10 ul. In method II, the mobile phase was run in 0.1% formic acid in methanol/water (98/2, volume to volume), and the elution volume was 5 ul.

[5] = Short-term stability in human urine at room temperature; type: physicochemical; details: unextracted, bench-top light, six hours, 0.3, 19 and 38 μg/ml
Method: The applicability of the testing methodology to analyze samples stored under different conditions was analyzed. First, to assess short-term stability of DMB in human urine, samples at 0.3, 19 and 38 μg/ml, 92.3% of DMB were maintained unextracted at room temperature and at bench-top light levels for six hours. […] Second, to assess freeze/thaw stability of DMB in human urine, samples at 0.3, 19 and 38 μg/ml, 92.3% of DMB were stored at −70° C. and thawed. This process was repeated twice and samples after each freezing were analyzed for DMB as described. For each concentration and each freezing/thawing sample, the % CV was no more than 15%.

Time stable on bench top ([1]; dog plasma, ambient bench top storage): approximately 17 hours
Bench top stability, Mean concentration ([1]; 0.6 μg/mL): 0.613 µg/mL
Bench top stability, RE % (mean vs nominal) ([1]; 0.6 μg/mL): 2.1%
Bench top stability, Mean concentration ([1]; 40 μg/mL): 35.7 µg/mL
Bench top stability, RE % (mean vs nominal) ([1]; 40 μg/mL): −10.7%
Time stable in the extract in the freezer ([2]; human plasma extract, freezer at −20° C.): at least 8 hours
Extract freezer stability, Mean concentration ([2]; 0.6 μg/mL): 0.562 µg/mL
Extract freezer stability, RE % (mean vs nominal) ([2]; 0.6 μg/mL): −6.3%
Extract freezer stability, Mean concentration ([2]; 40 μg/mL): 34.8 µg/mL
Extract freezer stability, RE % (mean vs nominal) ([2]; 40 μg/mL): −13.0%
Time stable on bench top ([3]; ambient bench top storage): approximately 12.5 hours
Measured concentration, QC-High ([3]; bench top room temperature, nominal 40.0 μg/mL, individual replicates): 45.6 µg/mL and 37.9 µg/mL and 47.4 µg/mL
Mean concentration, QC-Low ([3]; bench top, nominal 0.60 μg/mL): 646 ng/mL
RE %, QC-Low ([3]; bench top, nominal 0.60 μg/mL): 7.6%
Mean concentration, QC-High ([3]; bench top, nominal 40.0 μg/mL): 43600 ng/mL
RE %, QC-High ([3]; bench top, nominal 40.0 μg/mL): 9.1%
Bench top stability, RE % (mean vs nominal) ([3]; QC-High): 9.1%
Bench top stability, RE % (mean vs nominal) ([3]; QC-Low): 7.6%
Time quality control sample is stable [4]: at least 111 days
Short-term stability in human urine [5]: stable
SMILES: CCC(C)(C)C(=O)[O-].[Na+] [Sodium 2,2-Dimethylbutyrate]
Measured concentration, QC-Low ([3]; bench top room temperature, nominal 0.60 μg/mL, individual replicates): 0.600 µg/mL and 0.677 µg/mL and 0.660 µg/mL
